Values of other authors in patent US8263578B2, “Stable bortezomib formulations” (InnoPharma, Inc., priority 2010, dated 2012).
Read-outs that look alike come from different tables or passages of the source.

Settings: 25° C.

degraded (0.5 mg/mL in ethanol:normal saline solution (2:98, pH 2.8), 1 month): 20%
degraded (propylene glycol:ethanol:water (50:10:40), 8 months): 20%
Structure (SMILES): CC(C)C[C@H](NC(=O)[C@H](Cc1ccccc1)NC(=O)c1cnccn1)B(O)O [Bortezomib, N-(2-pyrazine) carbonyl-L-phenylalanine-L-leucine boronic acid]
